Measurements taken from paper PMC8260761, “A bacteriocin-based treatment option for Staphylococcus haemolyticus biofilms” (Scientific Reports, 2021).

Experiments:
Test in all cases: Spot-on-lawn inhibition assay
Assay type in all cases: cell-based
[1] = tested on: Staphylococcus haemolyticus strains; design: key to Mutants observed after 24 h (mark *): *Mutants observed after 24 h; key to Average inhibition score: –: “−” = No inhibition; “+” = Unclear zone; “++” = zone < 1 cm; “+++” = zone ≥ 1 cm; conditions: for Mutants observed after 24 h (mark *): spot of 5 μl at 1 mg/ml
Method: (§1) A semi-quantitative spot-on-lawn inhibitory assay was performed on 51 bacterial indicator strains (Table S1) to determine the bacteriocins inhibition spectra. Overnight cultures were diluted 1:100 in BHI soft agar and distributed on BHI agar plates. Once solidified, bacteriocins with various concentrations were applied on designated spots. The plates were incubated at appropriate temperature O/N and inhibition zones were measured the following day. To determine minimal inhibitory concentration (MIC50) of H1 against clinical S. haemolyticus isolates (Table S2), as well as strains heterologously expressing RseP (Table S4), the microtiterplate antimicrobial assay was performed as previously described[41],[79]. MIC50 was defined as the minimal bacteriocin concentration needs to inhibit the growth of a bacterial strain by at least 50%.

[2] = tested on: S. aureus; design: key: –: “−” = No inhibition; “+” = Unclear zone; “++” = zone < 1 cm; “+++” = zone ≥ 1 cm; conditions: 5 µl at 1 mg/ml, n=3
Method: as §1

[3] = tested on: S. epidermidis; design: key: –: “−” = No inhibition; “+” = Unclear zone; “++” = zone < 1 cm; “+++” = zone ≥ 1 cm; conditions: S. epidermidis LMG 3522; 5 µl at 1 mg/ml; n=3
Method: as §1

[4] = tested on: Staphylococcus arlettae; design: key: –: “−” = No inhibition; “+” = Unclear zone; “++” = zone < 1 cm; “+++” = zone ≥ 1 cm; conditions: Staphylococcus arlettae LMG 4134; 5 µl at 1 mg/ml; n=3
Method: as §1

[5] = tested on: E. faecium; conditions: 5 µl at 1 mg/ml, n=3
Method: as §1

[6] = tested on: L. monocytogenes; conditions: L. monocytogenes EDGe; 5 µl at 1 mg/ml; n=3
Method: as §1

[7] = tested on: Lactobacillus curvatus; conditions: 5 µl at 1 mg/ml, n=3
Method: as §1

[8] = tested on: S. homonis; conditions: S. homonis LMG 3129; 5 µl at 1 mg/ml; n=3
Method: as §1

[9] = tested on: Bacillus cereus; design: key: “-“ = No inhibition; “+” = Unclear zone; “++” = zone < 1 cm; “+++”= zone > 1 cm; conditions: 5 µl at 1 mg/ml, n=3
Method: as §1

[10] = tested on: C. piscicola; design: key: “-“ = No inhibition; “+” = Unclear zone; “++” = zone < 1 cm; “+++”= zone > 1 cm; conditions: C. piscicola LMG 2332; 5 µl at 1 mg/ml; n=3
Method: as §1

MLAKIKAMIKKFPNPYTLAAKLTTYEINWYKQQYGRYPWERPVA [EJ97, enterocin EJ97]
Average inhibition score ([1]; S. haemolyticus 4068, 5 μl at 1 mg/ml, n = 3): ++ (“++” = zone < 1 cm)
Mutants observed after 24 h (mark *) ([1]; S. haemolyticus 4068): *
Average inhibition score ([1]; S. haemolyticus 4069, 5 μl at 1 mg/ml, n = 3): ++ (“++” = zone < 1 cm)
Mutants observed after 24 h (mark *) ([1]; S. haemolyticus 4069): *
Average inhibition score ([1]; S. haemolyticus 4070, 5 μl at 1 mg/ml, n = 3): ++ (“++” = zone < 1 cm)
Mutants observed after 24 h (mark *) ([1]; S. haemolyticus 4070): *
Average inhibition score ([1]; S. haemolyticus 4071, 5 μl at 1 mg/ml, n = 3): ++ (“++” = zone < 1 cm)
Mutants observed after 24 h (mark *) ([1]; S. haemolyticus 4071): *
Average inhibition score ([1]; S. haemolyticus 4072, 5 μl at 1 mg/ml, n = 3): ++ (“++” = zone < 1 cm)
Mutants observed after 24 h (mark *) ([1]; S. haemolyticus 4072): *
Average inhibition score ([1]; S. haemolyticus 4073, 5 μl at 1 mg/ml, n = 3): ++ (“++” = zone < 1 cm)
Mutants observed after 24 h (mark *) ([1]; S. haemolyticus 4073): *
Average inhibition score ([1]; S. haemolyticus 7067_4_21, 5 μl at 1 mg/ml, n = 3): ++ (“++” = zone < 1 cm)
Mutants observed after 24 h (mark *) ([1]; S. haemolyticus 7067_4_21): *
Average inhibition score ([1]; S. haemolyticus 7067_4_28, 5 μl at 1 mg/ml, n = 3): +++ (“+++” = zone ≥ 1 cm)
Mutants observed after 24 h (mark *) ([1]; S. haemolyticus 7067_4_28): *
Average inhibition score ([1]; S. haemolyticus 7067_4_39, 5 μl at 1 mg/ml, n = 3): +
Average inhibition score ([1]; S. haemolyticus 7067_4_48, 5 μl at 1 mg/ml, n = 3): +
Average inhibition score ([1]; S. haemolyticus 7067_4_49, 5 μl at 1 mg/ml, n = 3): ++ (“++” = zone < 1 cm)
Mutants observed after 24 h (mark *) ([1]; S. haemolyticus 7067_4_49): *
Average inhibition score ([1]; S. haemolyticus 7067_4_56, 5 μl at 1 mg/ml, n = 3): ++ (“++” = zone < 1 cm)
Mutants observed after 24 h (mark *) ([1]; S. haemolyticus 7067_4_56): *
Average inhibition score ([1]; S. haemolyticus 7067_4_60, 5 μl at 1 mg/ml, n = 3): +++ (“+++” = zone ≥ 1 cm)
Mutants observed after 24 h (mark *) ([1]; S. haemolyticus 7067_4_60): *
Average inhibition score ([1]; S. haemolyticus 7067_4_66, 5 μl at 1 mg/ml, n = 3): ++ (“++” = zone < 1 cm)
Mutants observed after 24 h (mark *) ([1]; S. haemolyticus 7067_4_66): *
Average inhibition score ([1]; S. haemolyticus 7067_4_67, 5 μl at 1 mg/ml, n = 3): ++ (“++” = zone < 1 cm)
Mutants observed after 24 h (mark *) ([1]; S. haemolyticus 7067_4_67): *
Average inhibition score ([1]; S. haemolyticus 7067_4_71, 5 μl at 1 mg/ml, n = 3): +++ (“+++” = zone ≥ 1 cm)
Mutants observed after 24 h (mark *) ([1]; S. haemolyticus 7067_4_71): *
Average inhibition score ([1]; S. haemolyticus 7067_4_84, 5 μl at 1 mg/ml, n = 3): ++ (“++” = zone < 1 cm)
Mutants observed after 24 h (mark *) ([1]; S. haemolyticus 7067_4_84): *
Average inhibition score ([1]; S. haemolyticus 7068_7_63, 5 μl at 1 mg/ml, n = 3): ++ (“++” = zone < 1 cm)
Mutants observed after 24 h (mark *) ([1]; S. haemolyticus 7068_7_63): *
Average inhibition score ([1]; S. haemolyticus LMG 4133, 5 µl at 1 mg/ml, n=3): ++ (“++” = zone < 1 cm)
Average inhibition score ([1]; S. haemolyticus SH01, 5 μl at 1 mg/ml, n = 3): +++ (“+++” = zone ≥ 1 cm)
Mutants observed after 24 h (mark *) ([1]; S. haemolyticus SH01): *
Average inhibition score ([1]; S. haemolyticus SH04, 5 μl at 1 mg/ml, n = 3): +++ (“+++” = zone ≥ 1 cm)
Mutants observed after 24 h (mark *) ([1]; S. haemolyticus SH04): *
Average inhibition score ([1]; S. haemolyticus SH09, 5 μl at 1 mg/ml, n = 3): +
Average inhibition score ([1]; S. haemolyticus SH10, 5 μl at 1 mg/ml, n = 3): +++ (“+++” = zone ≥ 1 cm)
Mutants observed after 24 h (mark *) ([1]; S. haemolyticus SH10): *
Average inhibition score ([1]; S. haemolyticus SH14, 5 μl at 1 mg/ml, n = 3): ++ (“++” = zone < 1 cm)
Mutants observed after 24 h (mark *) ([1]; S. haemolyticus SH14): *
Average inhibition score ([1]; S. haemolyticus SH20, 5 μl at 1 mg/ml, n = 3): ++ (“++” = zone < 1 cm)
Mutants observed after 24 h (mark *) ([1]; S. haemolyticus SH20): *
Average inhibition score ([1]; S. haemolyticus SH46, 5 μl at 1 mg/ml, n = 3): ++ (“++” = zone < 1 cm)
Mutants observed after 24 h (mark *) ([1]; S. haemolyticus SH46): *
Average inhibition score ([1]; S. haemolyticus SH47, 5 μl at 1 mg/ml, n = 3): +++ (“+++” = zone ≥ 1 cm)
Mutants observed after 24 h (mark *) ([1]; S. haemolyticus SH47): *
Inhibition zones at three concentrations ([1]; six S. haemolyticus strains 4068–4073, 0.04, 0.2 and 1.0 mg/ml, 5 µl spotted): some inhibition was seen only at the highest concentration
Average inhibition score ([2]; S. aureus LMG 3263): +
Average inhibition score ([2]; S. aureus LMG 3326): +
Average inhibition score [3]: +
Average inhibition score [4]: +
Average inhibition score ([5]; E. faecium AL41): +++ (“+++”= zone > 1 cm)
Average inhibition score ([5]; E. faecium L50): +++ (“+++”= zone > 1 cm)
Average inhibition score ([5]; E. faecium P13): +++ (“+++”= zone > 1 cm)
Average inhibition score ([5]; E. faecium P21): +++ (“+++”= zone > 1 cm)
Average inhibition score [6]: +++ (“+++”= zone > 1 cm)
Average inhibition score ([7]; L. curvatus LMG 2353): +++ (“+++”= zone > 1 cm)
Average inhibition score ([7]; Lactobacillus curvatus LTH 1174): +++ (“+++”= zone > 1 cm)
Average inhibition score [8]: +++ (“+++”= zone > 1 cm)
Average inhibition score ([9]; B. cereus LMG 2711): -
Average inhibition score ([9]; B. cereus LMG 2731): -
Average inhibition score ([9]; Bacillus cereus LMG 2805): -
Average inhibition score [10]: -
